From PubChem BioAssay (NCI)
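Cells were grown in 96-well plates and exposed to each compound for 48 hours at five concentrations; endpoints were interpolated linearly between bracketing concentrations, or set to the highest concentration if not reached. The concentration for full growth arrest is given as TGI.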

Assays:
Experiment in all cases: growth of human tumour cells (NCI), 48 h
COLO 205 colon = test system: COLO 205 colon
HCC-2998 colon = test system: HCC-2998 colon
NCI-H226 lung = test system: NCI-H226 lung
SK-MEL-2 melanoma = test system: SK-MEL-2 melanoma
SK-OV-3 ovarian = test system: SK-OV-3 ovarian
SNB-19 CNS = test system: SNB-19 CNS
HOP-92 NSCLC = test system: HOP-92 NSCLC

SMILES	TGI (COLO 205 colon)	TGI (HCC-2998 colon)	TGI (NCI-H226 lung)	TGI (SK-MEL-2 melanoma)	TGI (SK-OV-3 ovarian)	TGI (SNB-19 CNS)	TGI (HOP-92 NSCLC)
CCCN(CCC)c1c([N+](=O)[O-])cc(C(=O)N(CCO)CCO)cc1[N+](=O)[O-]	> 100 µM	> 100 µM	> 100 µM	> 100 µM	> 100 µM		
S=C=NCCc1ccccc1	3.07 µM	1.54 µM	2.88 µM	0.928 µM	3.24 µM	7.85 µM	
CC(C)(C)OC(=O)c1cccnc1/C=N/O	> 100 µM		> 100 µM	> 100 µM	> 100 µM	> 100 µM	> 100 µM
COC1OC(C)C2OC(C)(C)OC2C1OC(C)=O (stereo unspecified)	> 100 µM	> 100 µM	> 100 µM			> 100 µM	> 100 µM
O=c1[nH]c(=O)n(C2OC(CO)C(O)C2O)cc1OCC(F)(F)F (stereo unspecified)	> 100 µM	> 100 µM	> 100 µM	> 100 µM	> 100 µM	> 100 µM	> 100 µM
COc1ccc(C(=O)N/N=C/c2c(C)n(C)n(-c3ccccc3)c2=O)cc1	> 100 µM	> 100 µM	> 100 µM	> 100 µM	> 100 µM	> 100 µM	> 100 µM
COC(=O)/C=c1\s/c(=C\C(=O)OC)c2ccccc12	> 100 µM	> 100 µM	> 100 µM	> 100 µM	> 100 µM	> 100 µM	> 100 µM
C#CCN(C(=O)C(F)(F)F)c1ccc(C(=O)c2ccc(N(CC#C)C(=O)C(F)(F)F)cc2)cc1	92.5 µM	> 100 µM		87.9 µM		> 100 µM	81 µM
CCCCCCCCCCCCCC(=O)CSCCNC(=O)CCNC(=O)[C@@H](O)C(C)(C)COP(=O)(O)OP(=O)(O)OCC1OC(n2cnc3c(N)ncnc32)C(O)C1OP(=O)(O)O (stereo partly specified)	29.4 µM	35.7 µM	35.7 µM	33.5 µM	27.8 µM	35.2 µM	24.5 µM
C/C=C/COC(=O)CO[N+](=O)[O-]	> 100 µM	> 100 µM	> 100 µM	> 100 µM	> 100 µM	> 100 µM	> 100 µM
CCN(CC)CCn1[nH]c2c3ccc(=O)cc3sc3c(NCCN)ccc1c32				2.69 µM	3.74 µM	4.29 µM	3.96 µM
O=c1[nH]c(=O)n(C2CC(O)C(CO)O2)cc1C#Cc1ccc(F)cc1 (stereo unspecified)	> 100 µM	> 100 µM	> 100 µM	> 100 µM	> 100 µM	> 100 µM	
Cc1ccc(C)c(NC(=O)CC2SC(=Nc3ccccc3Cl)NC2=O)c1 (stereo unspecified)	> 100 µM	> 100 µM	> 100 µM	> 100 µM	> 100 µM	> 100 µM	> 100 µM
Cc1nc2sccn2c1C(=O)NC(=O)Nc1ccc(Cl)cc1	> 100 µM	> 100 µM	> 100 µM	> 100 µM		> 100 µM	74.3 µM
CCOC(=O)C(CNc1ccc(O)cc1)NC(=O)c1ccccc1 (stereo unspecified)	> 100 µM	> 100 µM	> 100 µM	> 100 µM	> 100 µM	> 100 µM	> 100 µM
O=C(C/C(CCC(=O)N(Cc1ccccc1)Cc1ccccc1)=N/Nc1ccc([N+](=O)[O-])cc1[N+](=O)[O-])c1ccccc1	> 100 µM	> 100 µM	> 100 µM	> 100 µM	> 100 µM	> 100 µM	> 100 µM
CCOC(=O)/C(=C/c1ccc(N(CCC#N)CCC#N)cc1C)NC(=O)/C=C/c1ccccc1	> 100 µM	> 100 µM	> 100 µM	> 100 µM	> 100 µM	> 100 µM	
CC[N+](C)(CC)CC(C)(C)C(=O)/C=C/c1ccc(/C=C/C(=O)C(C)(C)C[N+](C)(CC)CC)cc1	> 100 µM	> 100 µM	> 100 µM		> 100 µM	> 100 µM	> 100 µM
O=C(CCc1nnc2s/c(=C\c3ccccc3Cl)c(=O)n12)Nc1cc(Cl)ccc1Cl		> 100 µM	> 100 µM	> 100 µM	> 100 µM	> 100 µM	> 100 µM
CC(=O)NNc1nc(C)c(C(=O)NNC(=O)C(=O)Nc2ccc([N+](=O)[O-])cc2C#N)s1	> 100 µM	> 100 µM	> 100 µM	> 100 µM	> 100 µM	> 100 µM	
Cn1c(=O)c2[nH]cnc2n(CC(N)=O)c1=O	> 100 µM			> 100 µM	> 100 µM	> 100 µM	> 100 µM
COc1cc2c(cc1C1=NC(C)(C)CO1)OCO2	> 100 µM		> 100 µM	> 100 µM	> 100 µM	> 100 µM	> 100 µM
c1ccc(P(=C2c3ccccc3-c3ccccc32)(c2ccccc2)c2ccccc2)cc1	15 µM	15.3 µM		23.5 µM	80.1 µM	> 100 µM	7.4 µM
OC12c3ccccc3C3CCC4(OCCO4)C3C1c1ccccc12 (stereo unspecified)	> 100 µM	> 100 µM	> 100 µM	> 100 µM	> 100 µM	> 100 µM	
